Experimental data: patent US10875898B2, “Bioactive protein, use thereof and method for its production” (Koppert B.V., priority 2014, dated 2020)

Tests used:
Assay type in all cases: in vivo
tomato leaves = test: activation of tomato plant defense responses after leaf injection
Experimental: FIG. 5: Effect of purified HYTLO1 (5 μM) injected on tomato leaves after 48 hours under UV light. Fluorescence is due to accumulation of compounds related to plant defense response.
FIG. 6: Effect of purified HYTLO1 ([…]) on the activation of tomato plant defense responses. Leaves were injected with […] of the protein solution and analyzed after 24 and 48 hours for the production of: (A) anion superoxide (XTT assay, mg p.s.=milligram of dry weight), (B) SOD activity (U/mg proteins), (C) ROOH peroxide accumulation (FOX1 assay), (D) LOX activity, (E) phytoalexin rishitin accumulation (g f.w.=gram of leaf fresh weight). Values are means+S.E. Methods used are the followings. Lyophilized plant tissues (10 mg) from HYTLO1-injected and -non injected tomato leaves were collected at different time points after inoculation (from 6 to 48 h) and homogenized. Anion superoxide was detected by measuring the reduction of 2,3-bis(2-methoxy-4-nitro-5-sulfophenyl)-5-[(phenylamino) carbonyl]-2H-tetrazolium hydroxide (XTT) to formazan, according to Sutherland, M. W., and B. A. Learmonth, 1997, Free Radical Research, 27:283-289, with modifications reported by Castoria, R., et al., 2003, Phytopathology, 93:564-572. Absorbance at 490 nm was measured in a microplate reader. XTT levels were expressed as mean absorbance values mg-1±standard errors. The activities of SOD, pH 7.8 and 10.0 (EC 1.15.1.1) and LOX enzymes (EC 1.13.11.12) were quantified as described by Reverberi M, et al., 2005, Free Radical Research, 39:637-647. Total hydroperoxides (ROOH) were detected by using the FOX spectrophotometric assay by monitoring the oxidation of xylenol orange at 560 nm (Ferrous ion oxidation xylenol orange: FOX-1) (Banerjee D, et al., 2003, Clinica Chimica Acta, 337:147-152). Quantification of the phytoalexins rishitin was performed by treating the leaf samples with methylene chloride (2 ml) in the presence of 100 mg of BHT. The tubes were left in a fume hood for 15/20 minutes and occasionally shaken. The extracts were filtered on filter paper Whatmann 3 MM and dried under nitrogen flow. Rishitin was quantified by GC-MS as described in Fanelli et al., 1992, Natural Toxins 1: 136-146.
FIG. 7: Effect of purified HYTLO1 on the activation of tomato plant defense responses. Leaves were injected with HYTLO1 at the indicated concentrations and analyzed after 48 hours by Real Time PCR for the accumulation of PR (Pathogenesis-Related)-proteins PR1, PR2 and PIN2 RNA (for methods see Tucci M., et al., 2011, Molecular Plant Pathology, 12:341-354) Values indicated the n. of fold increase vs. untreated control.
We analyzed the plant biochemical reaction to HYTLO1, which resulted stimulatory for the formation of the superoxide anion and hydrogen peroxide, for anion superoxide dismutase (SOD) and LOX activity, and the accumulation of the phytoalexin rishitin (FIG. 6).

Arabidopsis thaliana = test: growth of Arabidopsis; settings: 0.01 μM drench every two days for one month
Experimental: FIG. 12: Effect of purified HYTLO1 on the growth of Arabidopsis (A), percentage seed germination of cucumber (B) and plantlet development of Lotus japonicus (C). A: Arabidopsis thaliana (Columbia-0: Col-0) seeds were sown in Levington's F2 compost plus sand (JFC Munro, Devon; http://www.jfcmonro.com) and chilled for 2 days at 4° C. Plants were grown under short-day conditions (10 h light) in a controlled environment chamber, at 22° C. during the day and 18° C. at night with 60% relative humidity for 5-6 weeks before transplanting. Ten ml of sterile solutions of HYTLO1 were drenched every two days at concentrations 0.072 μg/ml (0.01 μM) for one month in each pot containing 100 ml of soil and 1 Arabidopsis plant. Untreated plants were used as controls. B: Sterile cucumber seeds were placed on magenta box containing half-strength Murashige and Skoog salt (MS) medium (ICN Biomedicals) containing 1% agar and 1.5% sucrose, adjusted to pH 5.7, and vernalized for 2 days at 4° C. in the absence of light. A sterile solutions of HYTLO1 was added to the substrate at final concentration of 10^−8 M before the solidification of agar. C: The same concentration of HYTLO1 was used in the agarized medium used for the L. japonicus test. […]

Lotus japonicus = test: Rhizobium lotii on Lotus japonicus in vitro system, plant growth and nodule density; settings: HYTLO1 0.07 μM, 6PP 0.002 μM, 4 weeks after seeding
Experimental: Wt+Rhz=treatment with R. loti, Wt-Rhz without R. loti. (D) Growth measured after 4 weeks, in the absence (cont) or presence of Rhizoba R. loti ((+) Rhiz). The purified molecules were added to the sterile MS media and poured into Petri dishes. Data were recorded 4 weeks after seeding of L. japonicus.
FIG. 18. […] (HYT=HYTLO1 at 0.07 μM, 6PP at 0.002 μM, HA=Harzianic Acid at 0.001 μM). Wt=control with R. loti without metabolites. The purified molecules were added to the sterile MS media and poured into Petri dishes. Average number of nodules per cm of root are indicated. Data were recorded 4 weeks after seeding of L. japonicus.
In order to test the effect of HYTLO1, as well as of the secondary metabolites HA and 6PP on the growth promotion activity of Rhizobia, such as Rhizobium sp., on legumimosae plants, we used a standard Rhizobium lotii on Lotus japonicus in vitro system (Barbulova et al., 2005, Functional Plant Biology, 32:529-536). Plant growth and nodule density on the roots were scored four weeks after seeding by comparing untreated controls and the various treatments.

[1] = 0.15, 2.5, 5.0 mM, 24 and 48 hours

Substance: HYTLO1: about 7 KDa Type II hydrophobin protein from Trichoderma longibrachiatum strain MK1, 71 aa, SEQ ID NO: 1
- accumulation of fluorescent compounds under UV light (tomato leaves; 5 μM injected on tomato leaves, after 48 hours): accumulation of fluorescent compounds
- LOX activity (tomato leaves; [1]): stimulatory
- accumulation of the phytoalexin rishitin (tomato leaves; [1]): stimulatory
- anion superoxide dismutase (SOD) activity (tomato leaves; [1]): stimulatory
- formation of hydrogen peroxide (ROOH, FOX1 assay) (tomato leaves; [1]): stimulatory
- formation of the superoxide anion (XTT assay) (tomato leaves; [1]): stimulatory
- defense responses in leaves distant from the site of application (tomato leaves; tomato leaf injection): systemic effect
- activation of defense-related genes PR1, PR2 and PIN1 (RT-PCR) (tomato leaves; tomato leaves, 48 hours): induced the activation
- growth promotion effect (Arabidopsis thaliana): confirmed
- plant growth promotion effect of Rhizobia on Lotus japonicus (Lotus japonicus; HA 0.001 μM in MS media): enhances the plant growth promotion effect of Rhizobia
- nodule formation (number of nodules per cm of root) (Lotus japonicus; HA 0.001 μM, with R. loti): Enhancement of nodule formation
